Experimental data published in patent US10265311B2, “Methods and compositions for treatment of disorders ameliorated by muscarinic receptor activation” (PureTech Health LLC, priority 2009, dated 2019).

Experiments:
[1] = with the anticholinergic agent glycopyrrolate; escalating amounts of RS-86; Alzheimer's Disease; cited from earlier work
[2] = tested on: normal healthy volunteers; test: Phase I double-blind randomized multiple-dose study, xanomeline alone vs xanomeline with trospium chloride: adverse event incidence; format: in vivo, human
Text: We conducted a Phase I, double-blind, randomized multiple-dose pilot study of xanomeline administered alone compared to xanomeline administered in combination with trospium chloride in normal healthy volunteers. […] The parameters of the study were as follows:
70 total study subjects were randomized, and of these, 68 study subjects received at least one assessment on day 3, which was the first day of xanomeline administration. The demographics of the study subjects were as follows:
The incidence and number of cholinergic adverse events in the evaluable population of the study was as follows, with all p-values based on a chi-squared test, with the exception of those marked with a * which werebased on a Fisher's exact test: […]

[3] = methscopolamine given with xanomeline; Medina et al. 1997; cited from earlier work
[4] = evaluable population, xanomeline 75 mg TID, trospium 20 mg BID or placebo, 7 days

CCN1C(=O)CC2(CCN(C)CC2)C1=O [RS-86]
improvement in cognition [1]: did not result in any improvement in cognition

CCCCCCOc1nsnc1C1=CCCN(C)C1 [Xanomeline + placebo, Xanomeline]
Salivation, % of subjects ([2]; evaluable population, 7 days): 36.4%
Sweating, % of subjects ([2]; evaluable population, 7 days): 48.5%
Any cholinergic TEAEs, # of events [2, 4]: 64
Any cholinergic TEAEs, % of subjects [2, 4]: 63.6%
Any cholinergic TEAEs, n subjects [2, 4]: 21
Any cholinergic TEAEs, % of subjects ([2]; evaluable population, xanomeline 75 mg TID, trospium 20 mg BID or placebo, 7 days, listed as xanomeline+placebo): 63%
Any SAE, # events ([2]; in vivo): 0
Any SAE, % ([2]; in vivo): 0.0%
Any study drug related TEAE, # events ([2]; in vivo): 92
Any study drug related TEAE, % ([2]; in vivo): 69.7%
Max Severity of TEAE Mild, % ([2]; in vivo): (66.7) N/A %
Max Severity of TEAE Moderate, % ([2]; in vivo): (15.2) N/A %
Max Severity of TEAE Severe, % ([2]; in vivo): (0.0) %
Max severity of study drug related TEAE Mild, % ([2]; in vivo): (57/6) N/A
Max severity of study drug related TEAE Moderate, % ([2]; in vivo): (12.1) N/A %
Max severity of study drug related TEAE Severe, % ([2]; in vivo): (0.0) N/A %

C[N+]1(C)[C@@H]2C[C@@H](OC(=O)[C@H](CO)c3ccccc3)C[C@H]1[C@@H]1O[C@@H]12 [methscopolamine]
effect on syncope, a side effect observed with xanomeline [3]: no effect on syncope
